According to ChEMBL document CHEMBL1131223, “Potent antagonists of the SH2 domain of Grb2: optimization of the X+1 position of 3-amino-Z-Tyr(PO3H2)-X+1-Asn-NH2” (J Med Chem, 1998):

Legend:
[1] = target: T1, Growth factor receptor-bound protein 2 (Homo sapiens, UniProt P62993); assay: Inhibition of binding to Grb2 SH2 domain
[2] = target: T1, Growth factor receptor-bound protein 2; assay: Inhibition of binding to Growth factor receptor bound protein 2 (Grb2) SH2 domain
[3] = target: T2, Tyrosine-protein phosphatase non-receptor type 11 (Homo sapiens, UniProt Q06124); assay: Inhibition of interaction between the activated tyrosine kinase receptors and Shp2 SH2 domains in the Ras signal transduction pathway.
T2 sequence (Q06124 whole entry): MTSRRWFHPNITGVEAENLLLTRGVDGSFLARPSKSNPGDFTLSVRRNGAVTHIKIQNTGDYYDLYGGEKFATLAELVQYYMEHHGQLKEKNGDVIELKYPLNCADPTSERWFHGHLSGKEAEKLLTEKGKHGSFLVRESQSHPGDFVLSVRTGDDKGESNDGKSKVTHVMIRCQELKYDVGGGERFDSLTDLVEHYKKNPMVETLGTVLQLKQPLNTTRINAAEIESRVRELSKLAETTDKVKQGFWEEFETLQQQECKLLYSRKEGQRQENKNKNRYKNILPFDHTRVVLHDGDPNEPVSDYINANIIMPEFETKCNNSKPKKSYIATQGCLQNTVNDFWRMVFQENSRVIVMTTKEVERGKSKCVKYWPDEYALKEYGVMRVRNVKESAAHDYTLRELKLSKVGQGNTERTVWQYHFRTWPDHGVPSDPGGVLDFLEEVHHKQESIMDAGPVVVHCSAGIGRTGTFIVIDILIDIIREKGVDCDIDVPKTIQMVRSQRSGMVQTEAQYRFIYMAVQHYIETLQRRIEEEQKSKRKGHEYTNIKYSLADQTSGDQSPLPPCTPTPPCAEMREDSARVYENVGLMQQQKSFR

[4] = Inhibition of binding to N-terminal p85 SH2 domain
[5] = target: Tyrosine-protein kinase Lck (Homo sapiens, UniProt P06239); assay: Inhibition of binding to p56 Lck tyrosine kinase SH2 domain
Sequence of Tyrosine-protein kinase Lck (P06239 whole entry, the tested form may be a part): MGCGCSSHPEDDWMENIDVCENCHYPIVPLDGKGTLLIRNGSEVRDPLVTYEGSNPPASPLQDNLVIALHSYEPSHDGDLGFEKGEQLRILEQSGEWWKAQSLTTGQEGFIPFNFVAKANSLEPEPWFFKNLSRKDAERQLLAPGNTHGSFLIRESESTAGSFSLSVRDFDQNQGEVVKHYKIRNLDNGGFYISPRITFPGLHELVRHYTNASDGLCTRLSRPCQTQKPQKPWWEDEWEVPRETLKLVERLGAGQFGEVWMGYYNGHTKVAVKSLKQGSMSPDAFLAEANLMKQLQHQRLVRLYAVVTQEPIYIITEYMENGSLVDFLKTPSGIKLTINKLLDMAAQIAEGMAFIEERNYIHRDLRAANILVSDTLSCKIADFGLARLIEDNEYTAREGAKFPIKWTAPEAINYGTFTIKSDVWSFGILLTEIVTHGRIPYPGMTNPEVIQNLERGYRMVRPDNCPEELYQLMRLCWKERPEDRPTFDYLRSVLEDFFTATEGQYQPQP

Row | Compound | IC50 [1] | IC50 [2] | IC50 [3] | IC50 [4] | IC50 [5]
1 | NC(=O)C[C@H](NC(=O)C1(NC(=O)[C@H](Cc2ccc(OP(=O)(O)O)cc2)NC(=O)OCc2cccc(N)c2)Cc2ccccc2C1)C(N)=O | 140 nM |  |  |  | 
2 | CC(C)(NC(=O)[C@@H](N)Cc1ccc(OP(=O)(O)O)c(N)c1)C(=O)N[C@@H](CC(N)=O)C(N)=O | 206 nM |  |  |  | 
3 | NC(=O)C[C@H](NC(=O)C1(NC(=O)[C@@H](N)Cc2ccc(OP(=O)(O)O)c(N)c2)CCCCC1)C(N)=O | 1 nM | 4 nM | > 5000 nM | 970 nM | 6.24 nM

Second part, led by results:

Row | IC50 [1] | Compound | IC50 [2] | IC50 [3] | IC50 [4] | IC50 [5]
4 | 23 nM | NC(=O)C[C@H](NC(=O)C1(NC(=O)[C@H](Cc2ccc(OP(=O)(O)O)cc2)NC(=O)OCc2cccc(N)c2)CCCC1)C(N)=O |  |  |  | 
5 | 124 nM | NC(=O)C[C@H](NC(=O)C1(NC(=O)[C@H](Cc2ccc(OP(=O)(O)O)cc2)NC(=O)OCc2cccc(N)c2)CC1)C(N)=O |  |  |  | 
